The target of the assay is human ACC2 (Homo sapiens (Human), UniProt O00763). In words: ACC2 assay (spectrophotometric 384 well assay, NADH-linked kinetic method). In kind it is biochemical. Here is the method: Spectrophotometric 384 Well Assay
Malonyl CoA formation by acetyl CoA carboxylases is stoichometrically linked to the consumption of ATP. ACC2 activity is measured in a NADH-linked kinetic method measuring ADP generated during the ACC reaction using a coupled lactate dehydrogenase/pyruvate kinase reaction.
The protein is then expressed in insect cells using a baculoviral expression system. Protein purification is performed by anion exchange.
All compounds are dissolved in dimethyl sulfoxide (DMSO) to a concentration of 10 mM.
The enzymatic reaction is then started by addition of a mixture of NADH, acetyl Coenzyme A (both 200 μM f.c.) and ATP (500 uM f.c.). The decrease of the optical density (slope S) is then determined at 25° C. at a wavelength of 340 nm over 15 minutes in a spectrophotometric reader.
Each assay microtiter plate contains wells with vehicle instead of compound as controls for the non-inhibited enzyme (100% CTL; ‘HIGH’) and wells without acetyl-CoA as controls for non-specific NADH degradation (0% CTL; ‘LOW’).

The mark [1] stands for this setting: hACC2 construct lacking 128 N-terminal amino acids, coupled lactate dehydrogenase/pyruvate kinase reaction, 340 nm, 25° C.

Where two headings read alike, the source gives them in different places.

human ACC2, sequence (O00763 129-2458): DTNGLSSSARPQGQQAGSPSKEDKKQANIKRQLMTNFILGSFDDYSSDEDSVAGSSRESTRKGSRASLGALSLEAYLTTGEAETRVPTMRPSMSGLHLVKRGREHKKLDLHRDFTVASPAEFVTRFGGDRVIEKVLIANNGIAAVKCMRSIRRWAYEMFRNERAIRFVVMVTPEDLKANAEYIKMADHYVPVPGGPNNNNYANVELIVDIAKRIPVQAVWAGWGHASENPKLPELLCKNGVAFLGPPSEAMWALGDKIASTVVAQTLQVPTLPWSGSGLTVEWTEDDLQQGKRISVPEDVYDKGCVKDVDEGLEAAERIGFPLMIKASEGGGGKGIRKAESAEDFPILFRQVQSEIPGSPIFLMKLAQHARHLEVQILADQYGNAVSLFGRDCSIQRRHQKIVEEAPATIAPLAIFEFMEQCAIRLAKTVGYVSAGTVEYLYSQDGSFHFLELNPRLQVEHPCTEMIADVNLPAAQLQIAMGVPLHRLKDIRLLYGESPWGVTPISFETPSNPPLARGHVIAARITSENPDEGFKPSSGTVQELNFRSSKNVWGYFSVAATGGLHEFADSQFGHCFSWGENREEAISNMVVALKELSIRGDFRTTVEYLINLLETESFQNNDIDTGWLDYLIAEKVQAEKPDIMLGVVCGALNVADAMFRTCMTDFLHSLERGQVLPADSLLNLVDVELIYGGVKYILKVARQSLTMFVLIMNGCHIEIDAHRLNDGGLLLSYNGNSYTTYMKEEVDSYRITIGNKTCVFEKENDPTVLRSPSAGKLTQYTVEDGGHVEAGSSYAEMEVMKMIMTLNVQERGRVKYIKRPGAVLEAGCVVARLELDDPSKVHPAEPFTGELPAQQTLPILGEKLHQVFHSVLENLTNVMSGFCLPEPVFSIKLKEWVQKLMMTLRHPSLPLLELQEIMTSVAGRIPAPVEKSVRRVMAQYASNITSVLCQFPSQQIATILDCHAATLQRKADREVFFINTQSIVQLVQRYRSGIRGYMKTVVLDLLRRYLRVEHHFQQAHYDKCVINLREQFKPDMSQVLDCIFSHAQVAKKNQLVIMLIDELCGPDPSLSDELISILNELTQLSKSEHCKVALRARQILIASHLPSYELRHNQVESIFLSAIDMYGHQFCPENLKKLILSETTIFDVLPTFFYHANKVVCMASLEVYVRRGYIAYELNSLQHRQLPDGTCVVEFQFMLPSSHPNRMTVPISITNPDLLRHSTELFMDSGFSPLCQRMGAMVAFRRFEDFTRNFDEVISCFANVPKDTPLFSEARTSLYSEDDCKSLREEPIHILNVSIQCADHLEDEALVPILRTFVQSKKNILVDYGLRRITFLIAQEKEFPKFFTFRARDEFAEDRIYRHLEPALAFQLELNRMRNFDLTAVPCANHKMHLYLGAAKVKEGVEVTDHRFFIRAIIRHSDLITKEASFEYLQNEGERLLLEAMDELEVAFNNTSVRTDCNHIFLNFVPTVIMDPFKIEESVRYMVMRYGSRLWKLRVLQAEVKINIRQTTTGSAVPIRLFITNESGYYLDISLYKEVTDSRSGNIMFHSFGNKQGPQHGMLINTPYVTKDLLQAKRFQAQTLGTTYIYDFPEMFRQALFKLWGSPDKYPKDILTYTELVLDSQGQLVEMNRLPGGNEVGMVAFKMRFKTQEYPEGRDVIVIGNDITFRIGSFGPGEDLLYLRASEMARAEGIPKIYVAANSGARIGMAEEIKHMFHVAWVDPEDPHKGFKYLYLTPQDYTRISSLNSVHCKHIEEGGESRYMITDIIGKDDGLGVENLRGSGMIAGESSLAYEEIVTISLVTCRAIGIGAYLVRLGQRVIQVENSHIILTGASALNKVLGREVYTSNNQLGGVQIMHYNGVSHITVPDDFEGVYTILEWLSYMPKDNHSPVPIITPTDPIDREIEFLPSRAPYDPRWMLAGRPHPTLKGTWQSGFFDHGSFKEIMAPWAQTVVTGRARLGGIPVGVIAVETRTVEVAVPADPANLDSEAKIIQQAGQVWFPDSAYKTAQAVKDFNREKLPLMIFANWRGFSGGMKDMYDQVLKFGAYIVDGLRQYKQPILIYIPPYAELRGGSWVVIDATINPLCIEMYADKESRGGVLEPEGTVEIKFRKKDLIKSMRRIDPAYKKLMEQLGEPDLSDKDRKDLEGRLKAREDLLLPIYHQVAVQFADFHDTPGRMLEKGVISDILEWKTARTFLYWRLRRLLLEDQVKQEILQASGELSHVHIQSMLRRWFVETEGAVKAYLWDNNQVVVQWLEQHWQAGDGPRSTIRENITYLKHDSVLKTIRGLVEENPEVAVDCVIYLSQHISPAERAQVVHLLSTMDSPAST

For the molecule `COc1c(OCC2CC2)ncnc1N1CC[C@@H](Oc2ccc([C@H](C)NC(=O)c3oc(NC(C)=O)nc3C)cc2)C1` [Example 2.32], the half-maximal inhibitory concentration (IC50) (as a rule, the concentration needed to halve the response being measured) under setting [1] came out at 809 nM.
`CC(=O)N[C@@H](C)c1ccc(O[C@@H]2CCN(c3ncnc(N4CCCCC4)c3F)C2)cc1` [Example 8.138] showed an IC50 under setting [1] of 105 nM.
As for `CC(=O)N[C@@H](C)c1ccc(O[C@@H]2CCN(c3ccnc(C(F)(F)F)n3)C2)cc1` [Example 6.21], the IC50 under setting [1] was 303 nM.
Regarding `CC(=O)N[C@@H](C)c1ccc(O[C@@H]2CCN(c3nc(N4CCC[C@@H]4C)ncc3F)C2)cc1` [Example 8.282], it took 157 nM to reach half-maximal inhibition under setting [1] (IC50).
`CC(=O)N[C@@H](C)c1ccc(O[C@@H]2CCN(c3ncnc(N4CC[C@@H](C)C4)c3F)C2)cc1` [Example 8.294] returned a concentration for half-maximal inhibition (IC50) under setting [1] of 52 nM.
Regarding `CC(=O)N[C@@H](C)c1ccc(O[C@@H]2CCN(c3ncc(OCC(C)C)cn3)C2)cc1` [Example 6.20], it took 974 nM to reach half-maximal inhibition under setting [1] (IC50).
Regarding `CC(=O)N[C@@H](C)c1ccc(O[C@@H]2CCN(c3ncnc(NCC4CCCCO4)c3Cl)C2)cc1` (stereo partly shown) [Example 8.316], the IC50 under setting [1] was found to be 580 nM.
For the molecule `CC(=O)N[C@@H](C)c1ccc(O[C@@H]2CCN(c3ccnc(N(C)C4CCOCC4)n3)C2)cc1` [Example 8.195], half-maximal inhibition under setting [1] (IC50) was put at 393 nM.
Take `CC(=O)Nc1nc(C)c(C(=O)N[C@@H](C)c2ccc(OC3CCN(c4ncnc(OCC5CC5)c4F)C3)cc2)s1` (stereo partly shown) [Example 2.19]: it took 39 nM to reach half-maximal inhibition under setting [1] (IC50).
Same read-out and setting: next, `CC(=O)N[C@@H](C)c1ccc(O[C@@H]2CCN(c3ncnc(N4CCOCC4)c3Cl)C2)cc1` [Example 8.117]: 485 nM.
`CC(=O)N[C@@H](C)c1ccc(O[C@@H]2CCN(c3ncnc(N4C[C@@H]5CC[C@@H](C4)O5)c3F)C2)cc1` [Example 8.278] came in with an IC50 under setting [1] of 673 nM.
In turn, `CC(=O)N[C@@H](C)c1ccc(O[C@@H]2CCN(c3ccnc(N4C[C@@H](C)O[C@@H](C)C4)n3)C2)cc1` [Example 8.85] displayed a half-inhibitory concentration (IC50) under setting [1] of 566 nM.
For `CC(=O)N[C@@H](C)c1ccc(O[C@@H]2CCN(c3ccnc(N4CCCC4C)n3)C2)cc1` (stereo partly shown) [Example 8.16], under setting [1], half-maximal inhibition (IC50) required 354 nM.
Under setting [1], `CC(=O)N[C@@H](C)c1ccc(O[C@@H]2CCN(c3nc(N4CC[C@H](F)C4)ncc3F)C2)cc1` [Example 8.184] had an IC50 of 220 nM.
The molecule `CC(=O)N[C@@H](C)c1ccc(O[C@@H]2CCN(c3ncnc(OC[C@H]4CC4(F)F)c3F)C2)cc1` [Example 7.45] returned an IC50 under setting [1] of 99 nM.
Take `CCCc1cnc(N2CC[C@@H](Oc3ccc([C@H](C)NC(C)=O)cc3)C2)nc1` [Example 6.25]: the IC50 under setting [1] was determined as 714 nM.
Consider `CC(=O)N[C@@H](C)c1ccc(O[C@@H]2CCN(c3nc(N(C)CC(C)O)ncc3F)C2)cc1` (stereo partly shown) [Example 8.239], for which the IC50 under setting [1] is 487 nM.
With `COc1ccc(N(C)c2nccc(N3CC[C@@H](Oc4ccc([C@H](C)NC(C)=O)cc4)C3)n2)cc1` [Example 8.38], the IC50 under setting [1] amounted to 1220 nM.
On to `CC(=O)N[C@@H](C)c1ccc(O[C@@H]2CCN(c3ccnc(N4CCOC(C)C4)n3)C2)cc1` (stereo partly shown) [Example 8.84], for which the IC50 under setting [1] is 212 nM.
With `COC[C@H]1CCCN1c1ncc(F)c(N2CC[C@@H](Oc3ccc([C@H](C)NC(C)=O)cc3)C2)n1` [Example 8.182], the IC50 under setting [1] was determined as 1120 nM.
Regarding `COCCN(C)c1nccc(N2CC[C@@H](Oc3ccc([C@H](C)NC(C)=O)cc3)C2)n1` [Example 8.49], the IC50 under setting [1] worked out at 219 nM.
In the case of `CC(=O)N[C@@H](C)c1ccc(O[C@@H]2CCN(c3ncnc(N(C)CC(C)C)c3F)C2)cc1` [Example 8.268], the 50% inhibitory concentration (IC50) under setting [1] amounted to 198 nM.
Consider `CC(=O)N[C@@H](C)c1ccc(O[C@@H]2CCN(c3nc(N(C)CCOC(C)(C)C)ncc3F)C2)cc1` [Example 8.215], for which, under setting [1], the IC50 turned out to be 719 nM.
With `C[C@H](NC(=O)OCC1CC1)c1ccc(O[C@@H]2CCN(c3ncnc(OCC4CC4)c3F)C2)cc1` [Example 7.36], under setting [1], the IC50 was determined as 2900 nM.
`CC(=O)N[C@@H](C)c1ccc(O[C@@H]2CCN(c3nc(N(C)C)ncc3Cl)C2)cc1` [Example 8.51] showed an IC50 under setting [1] of 124 nM.
For the molecule `CC(=O)N[C@@H](C)c1ccc(O[C@@H]2CCN(c3ccnc(N4CCC(F)(F)C4)n3)C2)cc1` [Example 8.43], 79 nM corresponded to half-maximal inhibition under setting [1] (IC50).
The same measure, in the same setting: as for `CC(=O)N[C@@H](C)c1ccc(O[C@@H]2CCN(c3nc(N4CCC[C@@H]4C)ncc3Cl)C2)cc1` [Example 8.281], the figure is 372 nM; as for `CCN(C)c1ncnc(N2CC[C@@H](Oc3ccc([C@H](C)NC(C)=O)cc3)C2)c1F` [Example 8.94], 165 nM; as for `CCN(C)c1nccc(N2CCC(Oc3ccc([C@H](C)NC(=O)c4sc(NC(=O)COC)nc4C)cc3)C2)n1` (stereo partly shown) [Example 2.9], 300 nM.
`COCCN(C)c1ncnc(N2CC[C@@H](Oc3ccc([C@H](C)NC(C)=O)cc3)C2)c1F` [Example 8.134] registered an IC50 under setting [1] of 208 nM.
Turning to `CC(=O)N[C@@H](C)c1ccc(O[C@@H]2CCN(c3ncnc(N(C)C4CCCOC4)c3F)C2)cc1` (stereo partly shown) [Example 8.236], it took 314 nM to reach half-maximal inhibition under setting [1] (IC50).
The molecule `CC(=O)N[C@@H](C)c1ccc(O[C@@H]2CCN(c3nc(N(C)CCOC(C)(C)C)ncc3Cl)C2)cc1` [Example 8.192] displayed a half-inhibitory concentration (IC50) under setting [1] of 640 nM.
On to `CC(=O)N[C@@H](C)c1ccc(O[C@@H]2CCN(c3nc(N4CCOCC4C)ncc3Cl)C2)cc1` (stereo partly shown) [Example 8.210], for which the IC50 under setting [1] was found to be 714 nM.
In the case of `COC[C@@H]1CCN(c2ncc(Cl)c(N3CC[C@@H](Oc4ccc([C@H](C)NC(C)=O)cc4)C3)n2)C1` [Example 8.188], under setting [1], the IC50 stood at 118 nM.
Same read-out and setting: as for `COc1cccc(N(C)c2nccc(N3CC[C@@H](Oc4ccc([C@H](C)NC(C)=O)cc4)C3)n2)c1` [Example 8.39], the figure is 452 nM; as for `CC(=O)N[C@@H](C)c1ccc(O[C@@H]2CCN(c3ncnc(N(C)CC(F)F)c3Cl)C2)cc1` [Example 8.115], 166 nM.
`CC(=O)N[C@@H](C)c1ccc(O[C@@H]2CCN(c3ncnc(OCC(F)F)c3F)C2)cc1` [Example 7.30] registered an IC50 under setting [1] of 153 nM.
With `CC(=O)N[C@@H](C)c1ccc(O[C@@H]2CCN(c3ncnc(NCC(C)(C)O)c3Cl)C2)cc1` [Example 8.296], under setting [1], the IC50 stood at 113 nM.
In the case of `CC(=O)N[C@@H](C)c1ccc(O[C@@H]2CCN(c3nc(N4CC5COCC5C4)ncc3F)C2)cc1` (stereo partly shown) [Example 8.272], the IC50 under setting [1] was 1190 nM.
Regarding `CC(=O)N[C@@H](C)c1ccc(O[C@@H]2CCN(c3nc(N4CCC(C)(C)C4)ncc3F)C2)cc1` [Example 8.194], under setting [1], it took 128 nM to reach half-maximal inhibition (IC50).
As to `CCN(C)c1nccc(N2CC[C@@H](Oc3ccc([C@H](C)NC(=O)C(F)F)cc3)C2)n1` [Example 5.1, N—((S)-1-(4-((R)-1-(2-(ethyl(methyl)amino)pyrimidin-4-yl)pyrrolidin-3-yloxy)phenyl)ethyl)-2,2-difluoroacetamide], under setting [1], the IC50 is 59 nM.
Regarding `C[C@H](NC(=O)C1CC1)c1ccc(O[C@@H]2CCN(c3ccnc(N(C)CC(F)F)n3)C2)cc1` [Example 2.1, N—((S)-1-(4-((R)-1-(2-((2,2-difluoroethyl)(methyl)amino)pyrimidin-4-yl)pyrrolidin-3-yloxy)phenyl)ethyl)cyclopropanecarboxamide], the IC50 worked out at 65 nM.
Under setting [1], `C[C@H](NC(=O)c1cncs1)c1ccc(O[C@@H]2CCN(c3ccnc(N(C)CC(F)F)n3)C2)cc1` [Example 8.97] came in with a half-maximal inhibitory concentration (IC50) of 79 nM.
In turn, `CC(=O)N[C@@H](C)c1ccc(O[C@@H]2CCN(c3nc(N4CCC(F)(F)CC4)ncc3Cl)C2)cc1` [Example 8.187] showed an IC50 under setting [1] of 220 nM.
As for `CC(=O)N[C@@H](C)c1ccc(O[C@@H]2CCN(c3nc(N(C)C4CCCC4)ncc3C#N)C2)cc1` [Example 8.33], it took 1060 nM to reach half-maximal inhibition under setting [1] (IC50).
In the case of `CC(=O)N[C@@H](C)c1ccc(O[C@@H]2CCN(c3nc(N4CCC(C)C4)ncc3Cl)C2)cc1` (stereo partly shown) [Example 8.142], the IC50 under setting [1] was determined as 138 nM.
The same measure, in the same setting: as for `COc1c(OCC(C)(C)O)ncnc1N1CC[C@@H](Oc2ccc([C@H](C)NC(C)=O)cc2)C1` [Example 7.58], the figure is 355 nM; as for `CC(=O)N[C@@H](C)c1ccc(O[C@@H]2CCN(c3nc(N(C)CCC(F)(F)F)ncc3F)C2)cc1` [Example 8.158], 56 nM.
Under setting [1], `CCCOc1ccnc(N2CC[C@@H](Oc3ccc([C@H](C)NC(C)=O)cc3)C2)n1` [Example 7.8] gave an IC50 of 2090 nM.
On the same count and under the same terms, as for `CC(=O)N[C@@H](C)c1ccc(O[C@@H]2CCN(c3ccnc(N(C)Cc4ccccc4)n3)C2)cc1` [Example 8.23], the figure is 185 nM; as for `CC(=O)N[C@@H](C)c1ccc(O[C@@H]2CCN(c3ncc(OCCC4CC4)cn3)C2)cc1` [Example 6.19], 449 nM; as for `CCN(CCO)c1ncc(F)c(N2CC[C@@H](Oc3ccc([C@H](C)NC(C)=O)cc3)C2)n1` [Example 8.240], 215 nM.
The molecule `CC(=O)N[C@@H](C)c1ccc(O[C@@H]2CCN(c3ncnc(NC4CCCC4)c3Cl)C2)cc1` [Example 8.308] showed a 50% inhibitory concentration (IC50) under setting [1] of 105 nM.
`CC(=O)N[C@@H](C)c1ccc(O[C@@H]2CCN(c3nc(OC4CCC4)ncc3F)C2)cc1` [Example 7.11] returned a 50% inhibitory concentration (IC50) under setting [1] of 368 nM.
Take `CC(=O)N[C@@H](C)c1ccc(O[C@@H]2CCN(c3nc(N4CC(F)(F)C4)ncc3F)C2)cc1` [Example 8.67]: under setting [1], half-maximal inhibition (IC50) required 130 nM.
`CC(=O)N[C@@H](C)c1ccc(O[C@@H]2CCN(c3ccnc(N4CCCOCC4)n3)C2)cc1` [Example 8.264]: the IC50 under setting [1] turned out to be 282 nM.
Molecule `CC(=O)N[C@@H](C)c1ccc(O[C@@H]2CCN(c3ncnc(NCC4CCCO4)c3Cl)C2)cc1` (stereo partly shown) [Example 8.313] came in with an IC50 under setting [1] of 306 nM.
Still for that read-out and setting: next, `C[C@H](NC(=O)Nc1ccon1)c1ccc(OC2CCN(c3ncnc(OCC4CC4)c3F)C2)cc1` (stereo partly shown) [Example 3.13]: 50 nM.

Source of the values: patent US8962641B2, “Pyrimidine-substituted pyrrolidine derivatives, pharmaceutical compositions and uses thereof” (Boehringer Ingelheim International GmbH, priority 2013, dated 2015).
